Results reported in PMC8777785, “Antimicrobial Activity of Snake β-Defensins and Derived Peptides” (Toxins, 2021).
In brackets after ≈: the same amount, converted by molar mass. Residues, ends and D or L forms follow the SMILES beside them.

Assays:
Klebsiella pneumonia = experiment: Microbroth dilution assay, MIC; type: cell-based, Klebsiella pneumoniae; conditions: short derived peptides, 2.75 to 700 µg/mL, overnight 37 °C, read at 600 nm, three independent experiments
Procedure: (§1) The β-defensins were tested using a microbroth dilution assay. It consists of incubating the bacteria (4.105 colony-forming unit—CFU/mL) and the peptide (from 1 to 512 µg/mL) in liquid broth. After the incubation at 37 °C during the night, the bacterial growth was detected by spectrophotometry at 600 nm. If the measure is similar to the broth, it […]. […] The β-defensins were tested against B. jararaca oral flora because it would be of biological and medical interest. In addition, we tested on E. coli ATCC 25922 and M. luteus that are common Gram-negative and Gram-positive bacteria used in antibacterial tests.
(§2) The antibacterial activity of the alkylated peptides was tested against Gram-negative (G−) bacteria (Klebsiella pneumonia, Serratia marcescens, Morganella morganii, Providencia rettgeri, Citrobacter freundii, Escherichia coli ATCC 25922 and Gram-positive (G+) bacteria (Micrococcus luteus A270 and Staphylococcus aureus) using microbroth assay. In a 96-well plate, 90 µL of 10% tryptone soy broth (TSB) with 4 × 10^5 colony-forming unit (CFU/mL) were mixed with serial twofold dilutions of β-defensins duplicate in concentrations from 512 to 1 µg/mL. The derived peptides coded as PS1, PS2, PS3, PS5, and PS6 (Table 1) were tested against these bacteria in serial twofold dilutions with concentrations bellow 700 µg/mL. After overnight incubation at 37 °C, the turbidity of the bacterial culture was read at 600 nm (Epoch microplate reader, Biotek). The minimal inhibitory concentration (MIC) of each peptide was determined as the lowest concentration that results in no visible bacterial growth. The MIC resulted from three independent experiments. The bacteria K. pneumonia, S. marcescens, M. morganii, P. rettgeri, C. freundii, M. luteus A270 and S. aureus were isolated from Bothrops jararaca buccal flora and kindly provided by Dr. Márcia R. Franzolin (Laboratory of Bacteriology—Instituto Butantan). M. luteus was kindly provided by Dr. Pedro I. da Silva Jr. (Laboratory of Applied Toxinology—Instituto Butantan).

Staphylococcus aureus = experiment: Microbroth dilution assay, MIC; type: cell-based; conditions: short derived peptides, 2.75 to 700 µg/mL, overnight 37 °C, read at 600 nm, three independent experiments
Procedure: as §1, §2

Citrobacter freundii = experiment: Microbroth dilution assay, MIC; type: cell-based; conditions: short derived peptides, 2.75 to 700 µg/mL, overnight 37 °C, read at 600 nm, three independent experiments
Procedure: as §1, §2

Micrococcus luteus A270 = experiment: Microbroth dilution assay, MIC; type: cell-based; conditions: short derived peptides, 2.75 to 700 µg/mL, overnight 37 °C, read at 600 nm, three independent experiments
Procedure: as §1, §2

[1] = system: Escherichia coli ATCC 25922; experiment: Microbroth dilution assay, MIC; type: cell-based; conditions: short derived peptides, 2.75 to 700 µg/mL, overnight 37 °C, read at 600 nm, three independent experiments
Procedure: as §1, §2

[2] = system: Trichophyton rubrum (IOC 4527); experiment: Resazurin microtiter assay plate, antifungal MIC90; type: cell-based; conditions: resazurin colour change, RPMI 1640, 1 to 250 μM, 28 °C, 24–72 h; three independent experiments
Procedure: (§3) The derived peptides were also tested against fungi species using the classical resazurin microtiter assay plate method. It is based on the color change of the rezazurin dye that in blue indicates the absence of growth in at least 90%, and pink refers to microorganism growth. MIC is determined as the minimal concentration of the sample that can prevent the color change from blue to pink and refers to the inhibition of 90% of microorganisms.
(§4) The antifungal activity was evaluated by the microdilution assay as previously described on clinical strains of Candida albicans (IOC 4525), Cryptococcus neoformans (IOC 4528), Trichophyton rubrum (IOC 4527) and Aspergillus fumigatus (IOC 4526). The fungi were cultivated in potato dextrose agar at 28 °C according to the Clinical and Laboratory Standards Institute recommendations. Fungal suspensions were prepared in RPMI 1640 culture media; the CFU/mL was adjusted to 0.5–2.5 × 10^3 for yeasts (C. albicans and C. neoformans) and 0.4–5 × 10^4 CFU/mL for filamentous fungi (T. rubrum e A. fumigatus), by comparison with a standard curve previously stablished in our laboratory.
(§5) The peptides PS1, PS2, PS, PS3, PS4, PS5 and PS6 at 1 mM in acetic acid at 0.01% were diluted in RPMI 1640 culture media at concentrations ranging from 1 to 250 μM. Amphotericin B (AMB) at concentrations below 15 μg/mL (16 μM) and acetic acid from 0.0002 to 0.0025% was used as control.
(§6) The fungi suspensions were added to a 96 well plate (100 µL/well) and the samples (100 µL) in different concentrations were added to each well. The plate was incubated at 28 °C for 24–72 h, and 24 h before the end of the assay 25 µL of the rezazurin dye at 0.02% were added to each well. The minimal inhibitory concentration (MIC90) was defined as the lowest concentration that prevents the rezazurin’s change in color from blue to pink due to the inhibition of at least 90% of the microorganism’s growth. The assays were performed in three independent experiments.

[3] = system: Aspergillus fumigatus (IOC 4526); experiment: Resazurin microtiter assay plate, antifungal MIC90; type: cell-based; conditions: resazurin colour change, RPMI 1640, 1 to 250 μM, 28 °C, 24–72 h; three independent experiments
Procedure: as §3, §4, §5, §6

[4] = system: Cryptococcus neoformans (IOC 4528); experiment: Resazurin microtiter assay plate, antifungal MIC90; type: cell-based; conditions: resazurin colour change, RPMI 1640, 1 to 250 μM, 28 °C, 24–72 h; three independent experiments
Procedure: as §3, §4, §5, §6

[5] = system: Candida albicans (IOC 4525); experiment: Resazurin microtiter assay plate, antifungal MIC90; type: cell-based; conditions: resazurin colour change, RPMI 1640, 1 to 250 μM, 28 °C, 24–72 h; three independent experiments
Procedure: as §3, §4, §5, §6

Structure (SMILES)	MIC, K. pneumoniae (Klebsiella pneumonia)	MIC, S. aureus (Staphylococcus aureus)	MIC, C. freundii (Citrobacter freundii)	MIC, M. luteus (Micrococcus luteus A270)	MIC, E. coli [1]	MIC90, Trichophyton rubrum [2]	MIC90, Aspergillus fumigatus [3]	MIC90, Cryptococcus neoformans [4]	MIC90, Candida albicans [5]
CSCC[C@H](NC(=O)[C@H](CCC(N)=O)NC(=O)[C@@H](N)CO)C(=O)NCC(=O)N[C@@H](CCC(N)=O)C(=O)N[C@@H](CCSC)C(=O)N[C@@H](CO)C(=O)N[C@@H](CO)C(=O)N[C@@H](CCCNC(=N)N)C(=O)N[C@@H](CCCNC(=N)N)C(=O)N[C@@H](CCCNC(=N)N)C(=O)N[C@@H](Cc1ccccc1)C(=O)NCC(=O)N[C@@H](CCCCN)C(=O)O [PS4] (H-SQMGQMSSRRRFGK-OH)	>423 µM	>423 µM	>423 µM	26.6 µM (≈ 44 µg/mL)	>423 µM	>250 µM	>250 µM	>250 µM	>250 µM
N=C(N)NCCC[C@H](NC(=O)CNC(=O)[C@@H]1CCCN1C(=O)CNC(=O)[C@@H](N)CO)C(=O)N[C@@H](CCCNC(=N)N)C(=O)N[C@@H](CO)C(=O)N[C@@H](CO)C(=O)N[C@@H](CCCNC(=N)N)C(=O)N[C@@H](CCCNC(=N)N)C(=O)N[C@@H](CCCNC(=N)N)C(=O)N[C@@H](Cc1c[nH]c2ccccc12)C(=O)N[C@@H](CCCCN)C(=O)O [PS5] (H-SGPGRRSSRRRWK-OH)	27.7 µM (≈ 43.9 µg/mL)	27.7 µM (≈ 43.9 µg/mL)	110 µM (≈ 174 µg/mL)	13.9 µM (≈ 22 µg/mL)	55.2 µM (≈ 87.5 µg/mL)	>250 µM	>250 µM	>250 µM	>250 µM
